Common to all, as to format: biochemical
The target in assay [1] is T1, PI3K delta (Homo sapiens, UniProt O00329).
T1 construct: for the full-length p110-d subunit are generated and fused by overlapping PCR; His tag (C); made in house; host or cells: baculovirus BV1060; Tn5 (Trichoplusia ni) or TiniPro insect cells
The assay can be described thus: PI3K delta kinase assay (Kinase-Glo luminescence). Particulars: read-out: EPK_PI3Kdelta/IC50. The method in brief: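 IC50s derive from 8-point inhibition curves fitted to a 4-parameter logistic model. Reaction: 10 nM purified p110δ/p85 iSH2 fusion, 1 μM ATP, 10 μg/mL PI substrate, pH 7.5 Tris buffer with MgCl2, NaCl, CHAPS and DTT, run 60 min at room temperature; remaining ATP read by Kinase-Glo luminescence.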
A general note: Kinase-Glo reads ATP consumption through a luciferase reaction.

Assay [2] addresses T2, PI3K alfa (Homo sapiens, UniProt P42336).
T2 construct: His tag (C); made in house; host or cells: baculovirus BV1075; Tn5 (Trichoplusia ni) or TiniPro insect cells
Nature of the assay: PI3K alpha kinase assay (Kinase-Glo luminescence). Particulars: read-out: EPK_PI3Kalfa/IC50. The method in brief: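 IC50 values come from a four-parameter logistic fit of percent inhibition at eight concentrations, typically 10 to 0.003 μM. Recombinant PI3Kα at 10 nM turned over 1 μM ATP with 10 μg/mL PI for 60 min at room temperature, and residual ATP was measured by Kinase-Glo.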

Assay [3] has as its target T3, PI3K beta (Homo sapiens, UniProt P42338).
T3 construct: for the full-length p110-b subunit are generated and fused by overlapping PCR; His tag (C); made in house; host or cells: baculovirus BV949; Tn5 (Trichoplusia ni) or TiniPro insect cells
The assay can be described thus: PI3K beta kinase assay (Kinase-Glo luminescence). Particulars: read-out: EPK_PI3Kbeta/IC50. The method in brief:
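Kinase-Glo luminescence read out ATP left after a 60-min room-temperature reaction, started with ATP (1 μM final) on 25 nM His-tagged p85 iSH2–p110β (BV949) plus 10 μg/mL PI substrate in pH 7.5 Tris buffer. Percent inhibition at eight concentrations was fitted to a four-parameter logistic model for IC50.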

SMILES strings stand for the structures.

T2 sequence (P42336 with tags, fused parts or gaps limits assumed): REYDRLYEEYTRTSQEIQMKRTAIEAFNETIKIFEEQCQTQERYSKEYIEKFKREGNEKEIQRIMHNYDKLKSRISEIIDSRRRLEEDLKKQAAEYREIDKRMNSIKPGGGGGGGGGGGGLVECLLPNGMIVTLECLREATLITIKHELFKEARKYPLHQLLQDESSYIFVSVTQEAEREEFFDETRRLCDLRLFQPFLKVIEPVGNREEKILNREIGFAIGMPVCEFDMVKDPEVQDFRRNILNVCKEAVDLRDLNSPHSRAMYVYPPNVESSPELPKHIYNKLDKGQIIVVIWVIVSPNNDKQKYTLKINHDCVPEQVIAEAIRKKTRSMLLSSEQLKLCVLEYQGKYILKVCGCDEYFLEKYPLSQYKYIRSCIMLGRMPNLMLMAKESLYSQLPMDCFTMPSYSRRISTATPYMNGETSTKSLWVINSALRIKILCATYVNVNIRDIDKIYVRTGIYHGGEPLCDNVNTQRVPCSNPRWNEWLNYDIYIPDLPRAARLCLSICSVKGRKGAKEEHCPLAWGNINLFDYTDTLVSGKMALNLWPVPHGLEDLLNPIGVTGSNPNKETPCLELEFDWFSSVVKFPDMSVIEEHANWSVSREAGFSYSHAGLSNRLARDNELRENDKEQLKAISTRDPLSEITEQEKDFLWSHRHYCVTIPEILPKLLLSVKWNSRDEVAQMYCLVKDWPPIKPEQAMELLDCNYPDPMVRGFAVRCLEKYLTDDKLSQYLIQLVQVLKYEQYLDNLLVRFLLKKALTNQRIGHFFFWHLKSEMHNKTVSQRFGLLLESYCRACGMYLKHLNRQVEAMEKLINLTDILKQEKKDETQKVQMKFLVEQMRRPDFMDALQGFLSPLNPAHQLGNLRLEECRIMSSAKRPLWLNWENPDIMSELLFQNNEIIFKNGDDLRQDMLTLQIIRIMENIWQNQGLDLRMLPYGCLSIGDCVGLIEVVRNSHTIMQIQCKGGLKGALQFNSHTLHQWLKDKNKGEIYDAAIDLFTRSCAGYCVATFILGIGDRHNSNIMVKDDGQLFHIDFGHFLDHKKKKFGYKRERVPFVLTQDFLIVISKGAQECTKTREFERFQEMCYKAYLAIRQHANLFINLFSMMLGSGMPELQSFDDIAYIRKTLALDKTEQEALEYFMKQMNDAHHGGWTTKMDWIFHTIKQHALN
T3 sequence (P42338 with tags, fused parts or gaps limits assumed): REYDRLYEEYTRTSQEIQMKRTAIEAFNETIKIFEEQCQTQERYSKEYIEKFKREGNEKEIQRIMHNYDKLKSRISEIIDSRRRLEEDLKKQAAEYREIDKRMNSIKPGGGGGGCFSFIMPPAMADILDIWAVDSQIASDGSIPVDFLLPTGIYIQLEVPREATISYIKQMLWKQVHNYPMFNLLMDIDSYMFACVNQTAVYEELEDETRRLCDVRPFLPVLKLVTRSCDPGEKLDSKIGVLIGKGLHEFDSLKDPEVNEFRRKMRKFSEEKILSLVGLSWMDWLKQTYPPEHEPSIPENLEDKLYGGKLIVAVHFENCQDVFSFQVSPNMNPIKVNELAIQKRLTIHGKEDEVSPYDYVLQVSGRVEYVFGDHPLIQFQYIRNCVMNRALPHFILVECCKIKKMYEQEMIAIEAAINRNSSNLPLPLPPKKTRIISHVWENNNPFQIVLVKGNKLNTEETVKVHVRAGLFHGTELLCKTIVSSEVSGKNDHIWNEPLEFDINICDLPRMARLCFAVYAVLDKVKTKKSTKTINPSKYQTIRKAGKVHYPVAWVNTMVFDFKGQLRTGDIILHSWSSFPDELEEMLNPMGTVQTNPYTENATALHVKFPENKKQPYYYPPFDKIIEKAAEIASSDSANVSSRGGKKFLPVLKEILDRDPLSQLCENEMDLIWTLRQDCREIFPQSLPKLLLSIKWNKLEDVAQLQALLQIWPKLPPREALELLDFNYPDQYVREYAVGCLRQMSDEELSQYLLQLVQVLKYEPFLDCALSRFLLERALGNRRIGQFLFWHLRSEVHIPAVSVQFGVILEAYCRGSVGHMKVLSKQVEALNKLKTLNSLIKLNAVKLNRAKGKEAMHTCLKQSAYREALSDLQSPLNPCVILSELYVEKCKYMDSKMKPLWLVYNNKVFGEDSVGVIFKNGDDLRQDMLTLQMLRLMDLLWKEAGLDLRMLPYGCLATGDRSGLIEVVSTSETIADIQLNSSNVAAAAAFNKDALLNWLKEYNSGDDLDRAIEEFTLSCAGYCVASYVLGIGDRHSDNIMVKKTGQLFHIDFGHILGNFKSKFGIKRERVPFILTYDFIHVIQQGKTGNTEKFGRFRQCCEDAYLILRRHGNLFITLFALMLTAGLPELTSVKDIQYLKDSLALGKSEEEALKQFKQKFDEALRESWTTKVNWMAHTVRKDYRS
T1 sequence (O00329 with tags, fused parts or gaps limits assumed): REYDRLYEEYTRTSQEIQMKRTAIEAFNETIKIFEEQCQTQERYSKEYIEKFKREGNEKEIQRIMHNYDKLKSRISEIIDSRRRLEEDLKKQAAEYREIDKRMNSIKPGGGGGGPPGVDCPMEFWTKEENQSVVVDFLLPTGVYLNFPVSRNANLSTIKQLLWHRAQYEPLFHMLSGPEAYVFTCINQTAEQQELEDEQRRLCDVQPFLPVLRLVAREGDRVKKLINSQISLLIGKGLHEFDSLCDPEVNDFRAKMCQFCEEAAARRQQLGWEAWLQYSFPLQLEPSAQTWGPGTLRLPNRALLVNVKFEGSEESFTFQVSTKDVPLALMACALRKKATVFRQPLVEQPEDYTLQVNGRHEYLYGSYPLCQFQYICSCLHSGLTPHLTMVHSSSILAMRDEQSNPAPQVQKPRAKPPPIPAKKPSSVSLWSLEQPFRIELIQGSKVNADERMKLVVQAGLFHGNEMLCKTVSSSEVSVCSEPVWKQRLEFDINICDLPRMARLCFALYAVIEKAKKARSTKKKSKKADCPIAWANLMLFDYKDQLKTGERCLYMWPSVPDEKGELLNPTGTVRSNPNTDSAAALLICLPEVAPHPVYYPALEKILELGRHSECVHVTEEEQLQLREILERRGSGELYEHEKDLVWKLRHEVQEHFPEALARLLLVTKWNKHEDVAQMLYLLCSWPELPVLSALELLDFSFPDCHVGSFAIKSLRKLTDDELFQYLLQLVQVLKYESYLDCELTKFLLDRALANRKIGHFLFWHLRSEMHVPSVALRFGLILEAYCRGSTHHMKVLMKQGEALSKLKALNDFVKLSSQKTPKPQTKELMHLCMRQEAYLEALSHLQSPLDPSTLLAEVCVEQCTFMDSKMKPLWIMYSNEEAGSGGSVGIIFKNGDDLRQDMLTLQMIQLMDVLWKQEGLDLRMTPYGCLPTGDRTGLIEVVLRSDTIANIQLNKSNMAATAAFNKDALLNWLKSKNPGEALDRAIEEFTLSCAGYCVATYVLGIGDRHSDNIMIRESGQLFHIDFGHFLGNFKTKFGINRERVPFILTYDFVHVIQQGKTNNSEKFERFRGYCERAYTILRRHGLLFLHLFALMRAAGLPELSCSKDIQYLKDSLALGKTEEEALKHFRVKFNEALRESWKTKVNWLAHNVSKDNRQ

Consider `COc1cc(-c2ccc3ncc4c(c3c2)n(-c2ccc(N)nc2C)c(=O)n4C)cnc1CO` [Example 30.1, 1-(6-Amino-2-methyl-pyridin-3-yl)-8-(6-hydroxymethyl-5-methoxy-pyridin-3-yl)-3-methyl-1,3-dihydro-imidazo[4,5-c]quinolin-2-one], for which the IC50 in assay [1] was 118 nM; in assay [2] it was 54 nM; in assay [3], 426 nM.

As to `CNc1ncc(-c2ccc3ncc4c(c3c2)n(-c2ccc(N3CC[C@H](O)C3)nc2C)c(=O)n4C)cc1Cl` [Example 32.4, 8-(5-Chloro-6-methylamino-pyridin-3-yl)-1-[6-((S)-3-hydroxy-pyrrolidin-1-yl)-2-methyl-pyridin-3-yl]-3-methyl-1,3-dihydro-imidazo[4,5-c]quinolin-2-one], the IC50 is 5 nM in assay [1], 18 nM in assay [2] and 106 nM in assay [3].

`COc1cc(-c2ccc3ncc4c(c3c2)n(-c2ccc(N3CC[C@H](O)C3)nc2C)c(=O)n4C)cnc1CO` [Example 32.7, 8-(6-Hydroxymethyl-5-methoxy-pyridin-3-yl)-1-[6-((S)-3-hydroxy-pyrrolidin-1-yl)-2-methyl-pyridin-3-yl]-3-methyl-1,3-dihydro-imidazo[4,5-c]quinolin-2-one]: the IC50 in assay [1] stood at 35 nM; in assay [2] it was 26 nM; in assay [3] it was 198 nM.

Turning to `CNc1ncc(-c2ccc3ncc4c(c3c2)n(-c2ccc(N3CC[C@@H](O)C3)nc2C)c(=O)n4C)cn1` [Example 34.1, 1-[6-((R)-3-Hydroxy-pyrrolidin-1-yl)-2-methyl-pyridin-3-yl]-3-methyl-8-(2-methylamino-pyrimidin-5-yl)-1,3-dihydro-imidazo[4,5-c]quinolin-2-one], the IC50 came to 42 nM in assay [1], 97 nM in assay [2] and 1100 nM in assay [3].

For `CCNc1cc(-c2ccc3ncc4c(c3c2)n(-c2ccc(N3CC(F)(F)C(F)(F)C3)nc2C)c(=O)n4C)cnc1CO` [Example 35.2, 8-(5-Ethylamino-6-hydroxymethyl-pyridin-3-yl)-3-methyl-1-[2-methyl-6-(3,3,4,4-tetrafluoro-pyrrolidin-1-yl)-pyridin-3-yl]-1,3-dihydro-imidazo[4,5-c]quinolin-2-one], the IC50 in assay [1] turned out to be 10 nM; in assay [2], 27 nM; in assay [3] it was 78.5 nM.
